From patent publication US20250339445A1, “Modulators of Orphan Nuclear Receptors for Treating Pancreatitis, Glioblastoma, Sarcopenia and Stroke” (Emory University, priority 2020, published 2025)
Entries after “also recorded” stand apart in the source; their conditions may differ.

Key:
[1] = Cellular toxicity assay, CEM cells; assay type: cell-based; conditions: human, CEM cells (human lymphoblastoid), compared to cycloheximide (+ control)
Experimental: The toxicity of the compounds was assessed in human PBM, CEM (human lymphoblastoid), and Huh-7 cells, as described previously (see Schinazi R. F., Sommadossi J.-P., Saalmann V., Cannon D. L., Xie M.-Y., Hart G. C., Smith G. A. & Hahn E. F. Antimicrob. Agents Chemother. 1990, 34, 1061-67). Cycloheximide was included as positive cytotoxic control, and untreated cells exposed to solvent were included as negative controls. The cytotoxicity IC50 was obtained from the concentration-response curve using the median effective method described previously (see Chou T.-C. & Talalay P. Adv. Enzyme Regul. 1984, 22, 27-55; Belen'kii M. S. & Schinazi R. F. Antiviral Res. 1994, 25, 1-11).

[2] = tested on: RORα-regulated genes; assay: Modulation of RORα-regulated genes in healthy C57BL/6 mice, single injection; assay type: in vivo
Experimental: Healthy C57BL/6 mice were injected i.p. once with 7.5 mg/kg Compound 1 or saline control. Mice were sacrificed at 1, 2, and 7 day time points post-injection. miR-122 and Gpase 6 mRNA levels were determined by qRT-PCR for each time point. MicroRNA levels were normalized to RNU6; plasma miR-122 was normalized to spiked in C. elegans miR-39; and mRNA levels were normalized to HPRT.
(§1) Compound 1 and AntagomiR injections to mice. C57BL/6 male mice, 7-8 weeks old, or Sgp130FC, 9-month-old male mice, were injected i.p. with 7.5 mg/kg Compound 1 dissolved in saline and 3% DMSO. Saline was injected as control. Mice were hydrodynamic tail vain injected with antagomiR-122 or antagomiR-control (negative control) (5 μg/mouse in 1.5 ml saline). Mice were sacrificed according to the legend of the figure describing the experimental results and the livers, white adipose and skeletal muscle tissues were frozen in liquid nitrogen or in OCT embedded frozen blocks, for further RNA and histologic analysis. AntagomiRs were obtained from Sigma Aldrich, see Table 3.

[3] = tested on: atherogenic diet C57BL/6 mice; assay: Atherogenic (fibrotic) diet mouse model; assay type: in vivo
Experimental: Male C57BL/6J mice, 7 to 8 weeks old, were housed randomly in standard cages and were fed a HFD, or atherogenic diet (consisting 1% Chol and 0.5% cholic acid, see also Table 6). All mice had free access to water during the experimental period. During the feeding period body weight was monitored every 3 days. In the HFD experiment, after 4 or 6 weeks, the resultant obese mice were treated with antagomiR-122 (5 μg/mouse once a week for 3 weeks), or i.p. injected with Compound 1 (RORα agonist, 7.5 mg/kg twice a week for 3 weeks; or 15 mg/kg 3 times a week for 3 weeks). The obese control (HFD) group was administered only saline with DMSO and antagomiR-control. After 3 weeks of treatment mice were sacrificed and livers were taken for RNA-seq analysis. Livers, white adipose, and skeletal muscle tissues were frozen in liquid nitrogen or in optimum cutting temperature embedded frozen blocks, for further RNA and histologic analysis. In the atherogenic diet experiment mice were treated with 15 mg/kg Compound 1 after 3 weeks with the diet. After 3.5 weeks of treatment, mice were sacrificed, and the livers were frozen in liquid nitrogen or in optimum cutting temperature embedded frozen blocks. Plasma was collected from atherogenic diet-fed mice and saved in −20° C. for ALT and AST analysis using the Reflotron® Analyzer and test-strips (Roche).
Livers and adipose samples were placed in 4% buffered formaldehyde for 24 hours, followed by 80% ethanol and then embedded in paraffin blocks. Liver and adipose tissues were cut into […], deparaffinized with xylene and hydrated through graded ethanol. For the H&E staining, tissue sections were stained with hematoxylin (Emmonya Biotech Ltd.) and eosin (Leica, Surgipath). Liver macrophages were stained using rat anti-mouse F4/80 antigen (Serotec), followed by anti-Rat HRP (Histofine) and developed with a DAB kit (Zymed). Liver sections were stained for Masson Trichrome (Sigma). Liver CD3+ T cells were stained using Rat anti human-CD3-antibody (Bio-Rad), followed by anti-Rat HRP (Histofine) and developed with AEC (Invitrogen). α-SMA positive cells were stained using mouse anti-Human smooth Muscle Actin antibody (Dako), followed by anti-mouse HRP (Dako) and developed with DAB. The percentage area stained positively per high power field was calculated by ImageJ Software in 5-10 random fields.
Experimental design: C57BL/6 mice fed for 3 weeks with atherogenic diet (to induce fibrosis) and injected with 15 mg/kg Compound 1 (or saline+DMSO) 3 times a week for 3.5 week (n=8).
After 3 weeks of treatment mice were sacrificed and livers were taken for RNA-seq analysis. Livers, gonadal white adipose, and skeletal muscle tissues were frozen in liquid nitrogen or in optimum cutting temperature embedded frozen blocks, for further RNA and histologic analysis. In the atherogenic diet experiment mice were treated with 15 mg/kg Compound 1 after 3 weeks with the diet. After 3.5 weeks of treatment, mice were sacrificed, and the livers were frozen in liquid nitrogen or in optimum cutting temperature embedded frozen blocks. Plasma was collected from atherogenic diet-fed mice and stored at −20° C. for ALT and AST analysis using the Reflotron® Analyzer and test-strips (Roche).

[4] = tested on: Sgp130FC mice; assay: Sgp130FC mice treated with Compound 1; assay type: in vivo; conditions: 7.5 mg/kg ip twice/week, four weeks
Experimental: Sgp130FC mice were injected (ip) with Compound 1 for four weeks (7.5 mg/kg, twice/week). FIGS. 6A-6B show the qRT-PCR analysis of miR-122 levels in plasma (6A), and in the livers (6B) after 4 weeks treatment with saline (as a control) and Compound 1. MicroRNA-18 was used as a negative control and its plasma and liver levels were not affected following treatment with Compound 1. The effect seen on this microRNA in FIG. 6A is not significant compared to the significant effect seen on miR-122.
as §1

[5] = atherogenic diet, 15 mg/kg 3 times a week for 3.5 weeks
[6] = atherogenic diet, 3 times weekly for 3.5 weeks
[7] = liver, atherogenic diet, 15 mg/kg 3 times a week for 3.5 weeks

## O=C1Nc2cc(C(=O)N3CCC(Cc4ccccc4)CC3)ccc2Nc2ccccc21 [Compound 1]
[1]
  CC50: 11 µM
[2]; 7.5 mg/kg i.p. once, liver, up to 7 days
  Gpase6 (G6Pase) mRNA, RORα target gene: significantly up-regulated; also recorded: increase
[2]; 7.5 mg/kg i.p. once, over 7 days
  miR-18 and miR-126 levels (controls): not affected
[2]; 7.5 mg/kg i.p. once, up to 7 days post-injection
  miR-122 levels in plasma and liver: increased
[2]; single administration
  Hepatic MIR122 precursors (pri-MIR122 and pre-MIR122): increase
  Mature MIR122 levels in WAT, muscle and heart tissues: increased significantly
  Three MIR122 target genes in heart tissue: significantly down-regulated
[2]; single administration, liver
  AldoA, MIR122 target: decrease
[3]; atherogenic diet
  Liver vasculature by CD34 staining: no effect
  NK cells in the livers: significant reduction in NK cells
[3]; [5]
  Biomarkers of inflammation (Tgfb2 and TgfbR2) and fibrosis (Acta1, Col1A1 and Col3A1), liver mRNA: reducing
  Mature miR-122 in tissue (liver) and plasma: increased
[3]; atherogenic diet, 15 mg/kg 3 times a week for 3.5 weeks, 15 mg/kg
  ALT and AST plasma levels (liver enzymes): significantly improved; also recorded: reducing significantly
[3]; [6]
  Liver fibrosis (Masson Trichrome and αSMA staining): significant reduction in liver fibrosis
  Liver inflammation (H&E, CD3 and F4/80 staining): significantly improved liver inflammation; also recorded: improved liver inflammation significantly
[3]; [7]
  Immune infiltrate by H&E staining: decreased immune infiltrate
  Myeloid infiltrate by F4/80 staining: decreased levels of myeloid infiltrate
  T-cell density by CD3 staining: decreased T-cell density
[3]; liver, versus untreated cohort
  Reduction of fibrotic area, Masson Trichrome (M.T): 5 fold
  Reduction of fibrotic area, α-SMA: 7 fold
[4]
  Liver and muscle triglyceride levels: reduces liver and muscle triglyceride levels
  MicroRNA-18 plasma and liver levels (negative control): not affected
  miR-122 expression (plasma, liver): increases miR-122 expression
